The numbers were not newly measured in patent US20230136789A1, “POLYMER IMPLANTS” (Foundry Therapeutics, Inc., priority 2020, published 2023), which cites them from elsewhere.

On to `CCCCN1CCCCC1C(=O)Nc1c(C)cccc1C` (stereo not shown) [bupivacaine], for which the pKa entry is recorded as “about 8.0”.
